Measured values reported in patent publication US20210170002A1, “SLC45A2 PEPTIDES FOR IMMUNOTHERAPY” (Board of Regents, The University of Texas System, priority 2015, published 2021).

How the values were obtained:
melanoma cells = assay: 51Cr release assay of SLC45A2-specific CD8 T cells against inhibitor-treated melanoma cells; type: cell-based, human; conditions: melanoma cells treated for 48 hours
Description: SLC45A2-specific CD8 T cells were assayed for specific lysis of SLC45A2-expressing or not expressing targets using standard 51Chromium (51Cr) release assay. Targets were labeled with 100 uCi of 51Cr for 2 hrs and after three times washing, the labeled targets plated triplicated well at a 2000 targets per well. Effector cells were incubated with targets as various effector:target (E:T) ratio. After 4 hours, 30 ul of supernatant was collected from each well and the 51Cr was measured by a gamma counter. The percentage of specific lysis was calculated.
(§1) Mel526 and A375 (BRAF V600E+) and MeWo (BRAF wild type) were treated with BRAF V600E inhibitor, dabrafenib (50 nM), or MEK inhibitor, Trametinib (50 nM) (GlaxoSmithKline) or both for 48 hours. Untreated melanomas were used as control.
Like other melanocyte differentiation proteins such as MART-1, gp100 and tyrosinase, the SLC45A2 gene is regulated by the MITF transcription factor (J Biol Chem, 2002, 277:402-406, Gen Soci Ame, 2008 178:761-769). MITF protein levels are suppressed by oncogenic BRAF through ERK-mediated phosphorylation and degradation (J Cell Biol, 2005, 170:703-708). […] Melanoma cells were treated with a specific inhibitor of BRAF V600E, dabrafenib (50 nM), or a MEK inhibitor, Trametinib (50 nM), or both for 48 hours and mRNA expression of SLC45A2 and MART-1 was analyzed by RT-PCR. […]

[1] = test system: mRNA expression of SLC45A2 and MART-1; assay: RT-PCR of SLC45A2 and MART-1 mRNA after MAPK pathway inhibitor treatment; type: cell-based, human; conditions: 50 nM, 48 hours
Description: Real time PCR was done with primers of SLC45A2, MART-1, gp100, and tyrosinase using power syber green PCR master mix (Applied biosystems life technologies). Values were normalized by the amount of the gene encoding GAPDH.
as §1
Like other melanocyte differentiation proteins such as MART-1, gp100 and tyrosinase, the SLC45A2 gene is regulated by the MITF transcription factor (J Biol Chem, 2002, 277:402-406, Gen Soci Ame, 2008 178:761-769). MITF protein levels are suppressed by oncogenic BRAF through ERK-mediated phosphorylation and degradation (J Cell Biol, 2005, 170:703-708). Thus, it was next investigated whether BRAF or MEK inhibitors can modulate SLC45A2 expression. Melanoma cells were treated with a specific inhibitor of BRAF V600E, dabrafenib (50 nM), or a MEK inhibitor, Trametinib (50 nM), or both for 48 hours and mRNA expression of SLC45A2 and MART-1 was analyzed by RT-PCR. […] To assess the killing effect of SCL45A2-specific CD8 T cells against melanoma cells after treatment with BRAF and MEK inhibitors, a ^51Cr release assay was performed in melanoma cells treated with a BRAF inhibitor, a MEK inhibitor or both for 48 hours.

Q: What does the source list for `CC(C)(C)c1nc(-c2cccc(NS(=O)(=O)c3c(F)cccc3F)c2F)c(-c2ccnc(N)n2)s1` [dabrafenib]?
A: cytotoxicity of SLC45A2-specific CD8 T cells against treated vs untreated melanoma cells (melanoma cells): increased cytotoxicity; mRNA expression of SLC45A2 and MART-1 ([1]; MeWo cells (wild type BRAF)): did not show an increased expression; mRNA expression of SLC45A2 and MART-1 ([1]; Mel526 cells (BRAF V600E)): significant increase

Q: With `CC(=O)Nc1cccc(-n2c(=O)n(C3CC3)c(=O)c3c(Nc4ccc(I)cc4F)n(C)c(=O)c(C)c32)c1` [Trametinib] as the molecule, how does the “cytotoxicity of SLC45A2-specific CD8 T cells against treated vs untreated melanoma cells” value (melanoma cells) read?
A: The value was “increased cytotoxicity”.
